# From ChEMBL document CHEMBL1201862, “PubChem BioAssay data set” (2004)
# Calls of active or inactive are those of the source.
# Key:
# [1] = molecular target: T1, Rac GTPase-activating protein 1 (Homo sapiens, UniProt Q9H0H5); assay: MgcRacGAP GTPase-activating activity inhibitors, confirmation, biochemical, ADP Hunter fluorescence, primary and confirmatory (AID 624330); type: functional
# T1 sequence (Q9H0H5 whole entry): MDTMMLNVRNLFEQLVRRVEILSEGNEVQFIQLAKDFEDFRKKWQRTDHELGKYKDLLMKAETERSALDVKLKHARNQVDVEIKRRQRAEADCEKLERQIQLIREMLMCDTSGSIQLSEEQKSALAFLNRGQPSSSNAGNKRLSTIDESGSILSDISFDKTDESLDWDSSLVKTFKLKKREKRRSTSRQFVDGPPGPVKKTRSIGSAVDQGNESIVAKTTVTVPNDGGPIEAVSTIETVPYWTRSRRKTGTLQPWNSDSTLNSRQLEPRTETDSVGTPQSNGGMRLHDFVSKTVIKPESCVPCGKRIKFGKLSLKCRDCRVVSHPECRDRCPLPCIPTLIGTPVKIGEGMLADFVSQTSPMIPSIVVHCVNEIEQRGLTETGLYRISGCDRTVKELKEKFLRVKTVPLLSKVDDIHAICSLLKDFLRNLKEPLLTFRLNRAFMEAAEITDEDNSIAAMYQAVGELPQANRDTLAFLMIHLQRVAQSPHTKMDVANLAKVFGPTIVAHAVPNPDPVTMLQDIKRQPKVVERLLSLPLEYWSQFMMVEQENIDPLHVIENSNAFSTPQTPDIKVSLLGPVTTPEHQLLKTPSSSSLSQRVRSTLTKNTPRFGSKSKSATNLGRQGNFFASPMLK
# Cytochrome P450 2D6 = Cytochrome P450 2D6 (Homo sapiens, UniProt P10635);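 note: CYP2D6 member of a cytochrome P450 panel assay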
# [2] = Luminescence Cell-Based Dose Retest to Confirm Inhibitors of Cancer Stem Cells. [Related pubchem assays (depositor defined):AID2717, AID2721]; type: functional; conditions: Homo sapiens
# [3] = inhibitors of intracellular T. cruzi replication, confirmation, NIH3T3 host cells, beta-gal luminescence (AID 2044); type: functional, cell-based;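 note: intracellular parasites grown in NIH/3T3 mouse fibroblasts as host cells; luminescent beta-galactosidase reporter signal from transgenic T. cruzi replicating inside host cells; inhibitors lower the luminescence signal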
# [4] = cytotoxicity toward NIH3T3 fibroblasts, dose response, counter-screen, cell-based, ATP luminescence, mouse fibroblasts (AID 2010); type: functional;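 note: cells exposed to compound for about 90 hours before reading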
# INS1 = assay: beta cell apoptosis inhibitors, cytokine rescue, dose response, luminescence, retest (AID 449756); type: functional, cell-based; conditions: Rattus norvegicus;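 note: cell death triggered by IL-1 beta plus TNF-alpha plus IFN-gamma mixture; protective hits raise ATP signal compared with cytokine alone wells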
# Cytochrome P450 2C19 = Cytochrome P450 2C19 (Homo sapiens, UniProt P33261); assay: Cytochrome panel assay with activity outcomes. Panel member name: p450-cyp2c19 Compounds with AC50 equal or less than 10 uM are considered active; type: functional
# Cytochrome P450 3A4 = Cytochrome P450 3A4 (Homo sapiens, UniProt P08684);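 note: CYP3A4 tested as one member of a cytochrome P450 panel screen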
# Chain of Cytochrome P450 3A4 (P08684 whole entry): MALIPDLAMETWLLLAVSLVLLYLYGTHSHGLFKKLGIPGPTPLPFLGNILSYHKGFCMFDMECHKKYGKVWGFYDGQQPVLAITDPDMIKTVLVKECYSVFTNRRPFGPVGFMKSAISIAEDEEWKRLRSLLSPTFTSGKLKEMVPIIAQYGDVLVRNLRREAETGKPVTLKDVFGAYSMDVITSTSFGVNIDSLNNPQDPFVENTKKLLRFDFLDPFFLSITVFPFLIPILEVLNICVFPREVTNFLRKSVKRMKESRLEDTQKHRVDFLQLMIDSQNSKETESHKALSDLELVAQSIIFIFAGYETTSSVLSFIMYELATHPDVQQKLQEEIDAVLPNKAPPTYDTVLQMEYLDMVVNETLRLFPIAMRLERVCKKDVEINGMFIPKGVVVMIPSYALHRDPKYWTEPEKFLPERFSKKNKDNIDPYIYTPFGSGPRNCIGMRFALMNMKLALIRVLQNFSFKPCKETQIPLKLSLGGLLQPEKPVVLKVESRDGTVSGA
# Chain of Cytochrome P450 2D6 (P10635 whole entry): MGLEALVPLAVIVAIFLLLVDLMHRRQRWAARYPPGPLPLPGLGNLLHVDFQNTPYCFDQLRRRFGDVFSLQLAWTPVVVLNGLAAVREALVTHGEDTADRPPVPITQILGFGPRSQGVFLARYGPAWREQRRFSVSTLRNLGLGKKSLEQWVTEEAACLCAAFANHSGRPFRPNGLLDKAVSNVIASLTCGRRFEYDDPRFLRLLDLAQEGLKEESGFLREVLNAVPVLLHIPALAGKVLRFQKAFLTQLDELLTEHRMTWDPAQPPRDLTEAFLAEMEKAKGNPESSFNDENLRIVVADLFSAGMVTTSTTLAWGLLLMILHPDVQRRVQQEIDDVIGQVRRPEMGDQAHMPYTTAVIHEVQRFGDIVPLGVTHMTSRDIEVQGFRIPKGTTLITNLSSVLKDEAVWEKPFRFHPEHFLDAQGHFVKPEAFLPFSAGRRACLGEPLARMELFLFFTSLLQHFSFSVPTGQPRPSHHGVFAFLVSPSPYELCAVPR
# Chain of Cytochrome P450 2C19 (P33261 whole entry): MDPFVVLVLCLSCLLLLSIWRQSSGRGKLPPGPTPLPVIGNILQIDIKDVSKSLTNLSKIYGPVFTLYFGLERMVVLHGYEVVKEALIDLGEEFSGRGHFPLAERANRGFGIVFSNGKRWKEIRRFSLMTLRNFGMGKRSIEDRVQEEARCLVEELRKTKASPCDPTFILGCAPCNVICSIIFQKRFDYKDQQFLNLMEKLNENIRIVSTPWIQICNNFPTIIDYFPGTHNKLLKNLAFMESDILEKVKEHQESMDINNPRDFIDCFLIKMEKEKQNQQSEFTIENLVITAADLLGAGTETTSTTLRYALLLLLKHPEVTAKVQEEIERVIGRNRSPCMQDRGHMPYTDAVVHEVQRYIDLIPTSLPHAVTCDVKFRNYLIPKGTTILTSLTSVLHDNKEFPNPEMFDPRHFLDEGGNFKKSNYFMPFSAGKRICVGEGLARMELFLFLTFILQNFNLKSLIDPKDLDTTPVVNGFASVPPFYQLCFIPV
smiles,measurement,setting,value
COc1ccc(/C=N/NC(=O)c2cnccn2)cc1O,IC50,[1],85.6 µM (active)
COC(=O)c1[nH]c2ccc(Cl)cc2c1NC(=O)Oc1ccccc1,IC50,[1],19.8 µM (active)
O=C1CCCC2=C1C(c1ccc(OS(=O)(=O)c3ccc(Cl)cc3)cc1)C1=C(CCCC1=O)O2,AC50,Cytochrome P450 2D6,12.6 µM (inconclusive)
c1ccc(-c2cccc(N3CCC4(CCNCC4)CC3)c2)cc1,AC50,Cytochrome P450 2D6,39.8 µM (inconclusive)
NC(=O)CC(NC(=O)c1ccc(Br)cc1)c1ccc(N2CCCCCCC2)c([N+](=O)[O-])c1 (stereo unspecified),AC50,[2],8.2 µM (active)
Cc1ccc(NC(=O)NCC2CCN(Cc3cccc(Cl)c3)CC2)cc1Cl,EC50,[3],1.03 µM (active)
same,EC50,[4],> 60 µM (not active)
same,AC50,[2],8.54 µM (active)
same,AC50,INS1,12.8 µM (active)
CCCCCCOc1ccc(OC(=O)c2cccnc2)cc1,AC50,[2],3.33 µM (active)
COc1ccc(CN2CCN(C(=O)C3CCC(CNS(=O)(=O)c4ccc(C)cc4)CC3)CC2)c(OC)c1OC (stereo unspecified),EC50,[3],0.404 µM (active)
same,EC50,[4],> 60 µM (not active)
COc1ccc(C(=O)c2c(C)c3ccccc3n2CC(O)CNC(C)C)cc1 (stereo unspecified),AC50,INS1,30.1 µM (active)
CN(C)c1ccc(-c2nccc(NCCN3CCOCC3)n2)cc1,AC50,Cytochrome P450 2C19; read-out: AC50,15.8 µM (inconclusive)
same,AC50,Cytochrome P450 2D6,39.8 µM (inconclusive)
same,AC50,Cytochrome P450 3A4,25.1 µM (inconclusive)
Oc1ccccc1CNCc1ccccc1O,AC50,Cytochrome P450 2D6,3.16 µM (inconclusive)
O=c1c2ccccc2[nH]c(=S)n1CCCN1CCC(Cc2ccccc2)CC1,EC50,[3],0.161 µM (active)
same,EC50,[4],> 60 µM (not active)
COc1ccc(S(=O)(=O)N2CCC(N3CCCCC3)CC2)cc1,AC50,Cytochrome P450 2C19; read-out: AC50,39.8 µM (inconclusive)
CN(C)CCCn1c2c(c(SCC(=O)Nc3cccc4ccccc34)nc1=O)CCC2,EC50,[3],2.04 µM (active)
same,EC50,[4],> 60 µM (not active)
CC[C@H]1CN2CCc3cc(OC)c(OC)cc3[C@H]2C[C@@H]1C[C@H]1NCCc2c1[nH]c1ccc(O)cc21,AC50,Cytochrome P450 2D6,3.98 µM (inconclusive)
CCC1CCCCN1Cc1cc(OC)c(O)c([N+](=O)[O-])c1 (stereo unspecified),AC50,Cytochrome P450 2D6,14.1 µM (inconclusive)
c1ccc(Nc2cccc3c(Nc4ccccc4)cccc23)cc1,EC50,[3],1.14 µM (active)
same,EC50,[4],> 60 µM (not active)
CCCCCc1nc2c(C#N)c(-c3ccc(Cl)cc3)ccn2n1,AC50,Cytochrome P450 3A4,25.1 µM (inconclusive)
O=C(Nc1ncc(S(=O)(=O)c2ccc([N+](=O)[O-])cc2)s1)c1ccc2ccccc2c1,EC50,[3],0.128 µM (active)
same,EC50,[4],> 60 µM (not active)
same,AC50,[2],2.11 µM (active)
CN(Cc1ccccc1)Cc1c(O)ccc2ccccc12,IC50,[1],89.3 µM (active)
COCCN1CN=C(Nc2nc3ccccc3s2)NC1,AC50,Cytochrome P450 2D6,11.2 µM (inconclusive)
Cn1nnnc1SCCNCc1cccc2ccccc12,EC50,[3],> 60 µM (not active)
same,EC50,[4],> 60 µM (not active)
CN(C(=O)COc1cccc(Br)c1)C1CCS(=O)(=O)C1 (stereo unspecified),AC50,Cytochrome P450 2C19; read-out: AC50,22.4 µM (inconclusive)
COc1cc(C)ccc1OCCOc1cc(C)ccc1Cl,AC50,Cytochrome P450 2C19; read-out: AC50,5.62 µM (inconclusive)
COc1ccc(CN2CCCC(C(=O)N3CCCC3)C2)cc1 (stereo unspecified),IC50,[1],109 µM (active)
CNC(=S)N(Cc1cccs1)Cc1cc2cc(OC)c(OC)cc2nc1O,AC50,INS1,99.3 µM (active)
COCCCn1c(=N)c(C(N)=S)cc2c(=O)n3cccc(C)c3nc21,EC50,[3],1.34 µM (active)
same,EC50,[4],> 60 µM (not active)
NC1=NC(Nc2ccc(F)cc2F)=NC2(CCCCC2)N1,AC50,Cytochrome P450 2C19; read-out: AC50,3.16 µM (inconclusive)
CC(=O)NCCNc1nc(-c2ccc3c(c2)OCO3)nc2ccccc12,AC50,Cytochrome P450 2C19; read-out: AC50,39.8 µM (inconclusive)
Cc1ccc(OCC(O)Cn2c3ccccc3c3ccccc32)cc1 (stereo unspecified),AC50,[2],4.84 µM (active)
Cn1c([N+](=O)[O-])cnc1CN1CCN(CCO)CC1,AC50,Cytochrome P450 2C19,inconclusive
O=C(CCCCN1CCCCC1)c1ccc2c(c1)Cc1ccccc1-2,EC50,[3],1.9 µM (active)
same,EC50,[4],13.6 µM (active)
O=C(COc1ccc(Br)cc1Cl)NC1CCN(Cc2ccccc2)CC1,EC50,[3],0.165 µM (active)
same,EC50,[4],> 60 µM (not active)
CN(C)C(=O)c1ccc(-c2ccc3ncnc(Nc4ccc(F)cc4)c3c2)cc1,AC50,Cytochrome P450 2C19; read-out: AC50,25.1 µM (inconclusive)
O=C(CN1CCN(c2ccc(O)cc2)CC1)Nc1ccc(SC(F)F)cc1,AC50,[2],6.49 µM (active)
O=S(=O)(c1cccc(-c2nnc(-c3ccc(Br)cc3)o2)c1)N1CCCCCC1,AC50,Cytochrome P450 2C19; read-out: AC50,11.2 µM (inconclusive)
